Measurements published in patent US10377741B2, “Substituted heteroaryl aldehyde compounds and methods for their use in increasing tissue oxygenation” (Global Blood Therapeutics, Inc., priority 2011, dated 2019).

Assays:
[1] = target: T1, purified Hemoglobin S (HbS) (Homo sapiens, UniProt P68871+P69905, E7V); test: Modulation of hemoglobin oxygen affinity: oxygen equilibrium curves (HEMOX) in purified HbS; type: biochemical, human (homozygous sickle cell patients); details: compound at 30 μM; 25 μM purified HbS, 45 min at 37° C.
T1 construct: HbS was purified by a modified procedure; from tissue; host or cells: blood of homozygous sickle cell patients (CHORI); for the polymerization assay purified by the CRO VIRUSYS
Method in brief: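 HbS from homozygous sickle cell patient blood, 25 μM in HEMOX buffer pH 7.4, incubated 45 min at 37° C with compound (30 μM unless noted). Air-saturated then deoxygenated with N2; p50 from Hill fit; delta p50% = (control p50 − treated p50)/control p50 × 100.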

purified HBS = target: T2, purified HBS (Homo sapiens, UniProt P68871+P69905, E7V); test: Polymerization assay (delay time of HbS polymerization); type: biochemical, human (homozygous sickle cell patients); details: percent delay (% DT) vs HBS alone; 50 μM purified HBS, 1.8 M potassium phosphate pH 7.4
T2 construct: HbS was purified by a modified procedure; from tissue; host or cells: blood of homozygous sickle cell patients (CHORI); for the polymerization assay purified by the CRO VIRUSYS
Description: Polymerization assays are carried out in vitro using purified HBS exchanged into 1.8 M potassium phosphate buffer at pH 7.4. Using a slightly modified protocol (Antonini and Brunori, 1971), HbS is purified by the CRO VIRUSYS, from blood obtained from homozygous sickle cell patients through the Hemoglobinopathy Center at Children's Hospital Oakland Research Institute (CHORI) with Institutional Review Board approval. Compounds are prepared in 100% DMSO and a desired amount is added to 50 μM of purified HBS at a final DMSO concentration of 0.3%. Final potassium phosphate concentration is adjusted to 1.8 M using a combination of 2.5 M potassium phosphate stock solution and water at pH 7.4. The reaction mixture is incubated for an hour at 37° C. and then transferred into a 24-well plate for deoxygenation in a glove box containing 99.5% nitrogen and 0.5% oxygen. The 24-well plate is not covered and incubated at 4° C. on a plate cooler inside the glove box for one and a half hours. Fifty μL of the reaction mixture is transferred into a 96-well plate and the absorbance at 700 nm is measured every minute for one hour at 37° C. in a plate reader located inside the glove box. A plot of the absorbance against time is fitted using a Boltzman sigmoidal fit and the delay time (from zero to time at half Vmax) is measured. To compare and rank compounds, delay times are expressed as percent delay (% DT), which is defined as the difference in delay times for HBS/compound and HBS alone multiplied by 100 and divided by the delay time for HBS alone.
Compounds listed below have been tested in the polymerization assay. Activity ranges are defined by the number of dagger (†) symbols indicated. † denotes activity ≥40% but ≤80%; †† denotes activity >80% but ≤120%; ††† denotes activity >120% but ≤140%; †††† denotes activity >160%.

HbS/A = target: T3, HbS/A (Homo sapiens, UniProt P68871+P69905, E7V); test: R/T assay (relaxed-to-tense transition under deoxygenated conditions); type: biochemical, human (homozygous sickle cell patients); details: 3 μM HbS/A, % R remaining vs no treatment
T3 construct: A mixture of HbS/A was purified from blood; from tissue; host or cells: blood of homozygous sickle cell patients (CHORI)
Method in brief: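 Purified HbS/A (3 μM final) incubated 1 hr at 37° C with compounds (3 μM to 100 μM) in potassium phosphate buffer pH 7.4 with 30 μM DPG, then deoxygenated under N2 with 300–700 nm spectra every 5 min for 2 hours. Delta R is % R state retained versus untreated, by linear regression over all wavelengths.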

whole blood = test: Whole blood assay: oxygen equilibrium curves of whole blood; type: cell-based, human (homozygous sickle cell patients); details: compound at 1000 μM; hematocrit 20%, 1 hour at 37° C.
Method in brief: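 Homozygous sickle cell patient blood, hematocrit 20% in autologous plasma, incubated 1 h at 37° C with or without compound (1000 μM unless noted). Diluted into Hemox buffer pH 7.4, oxygenated then deoxygenated with nitrogen; OEC fitted to Hill model for p50, reported as delta p50%.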

Row | SMILES | delta p50% [1] | % delta Delay (purified HBS) | delta R (HbS/A; compound at 9 μM) | delta R (HbS/A; compound at 3 μM) | delta R (HbS/A; compound at 30 μM) | melting point [°C] | delta p50% Values for Whole Blood Assay (whole blood)
1 | COC(=O)c1ccc(COc2cccnc2C=O)cc1 [Compound 164] | ++ (a delta p50% of between 30 and 50) | ††† (activity >120% but ≤140%) | ++ (a delta R of between 30 and 50) | – | – | – | ++ (a delta p50% of between 30 and 50)
2 | COc1cc(C=O)c(OCc2cccnc2-c2ccccc2)cn1 [Compound 159, 2-methoxy-5-((2-phenylpyridin-3-yl)methoxy) isonicotinaldehyde] | +++ (a delta p50% of 50 or greater) | †† (activity >80% but ≤120%) | – | – | ++ (a delta R of between 30 and 50) | – | +++ (a delta p50% of 50 or greater)
3 | COc1cc(C=O)c(OCc2cccnc2-c2ccccc2C)cn1 [Compound 162, 2-methoxy-5-((2-(o-tolyl)pyridin-3-yl)methoxy)isonicotinaldehyde] | +++ (a delta p50% of 50 or greater) | †† (activity >80% but ≤120%) | – | – | +++ (a delta R of 50 or greater) | – | +++ (a delta p50% of 50 or greater)
4 | Cl.O=Cc1ccncc1OCc1ccc(C(=O)O)cn1 | – | – | – | – | – | 192 to 194 | –
5 | COc1cc(C=O)c(OCc2cccn3ccnc23)cn1 [Compound 5] | ++ (a delta p50% of between 30 and 50) | † (activity ≥40% but ≤80%) | – | – | ++ (a delta R of between 30 and 50) | – | + (a delta p50% of between 0 and 29)
6 | O=Cc1cc(OC(F)F)ncc1OCc1cccn2ccnc12 [Compound 158, 2-(difluoromethoxy)-5-(imidazo[1,2-a]pyridin-8-ylmethoxy)isonicotinaldehyde] | ++ (a delta p50% of between 30 and 50) | † (activity ≥40% but ≤80%) | + (a delta R of between 0 and 30) | – | – | – | + (a delta p50% of between 0 and 29)
7 | COc1cc(C=O)c(OCc2cccnc2-c2cccnc2OC)cn1 [Compound 163, 2-methoxy-5-((2′-methoxy-[2,3′-bipyridin]-3-yl)methoxy)isonicotinaldehyde] | +++ (a delta p50% of 50 or greater) | †† (activity >80% but ≤120%) | – | – | ++ (a delta R of between 30 and 50) | – | +++ (a delta p50% of 50 or greater)
8 | CCn1nccc1-c1ncccc1COc1cnc(OC)cc1C=O [Compound 149, 5-((2-(1-ethyl-1H-pyrazol-5-yl)pyridin-3-yl)methoxy)-2-methoxyisonicotinaldehyde] | +++ (a delta p50% of 50 or greater) | † (activity ≥40% but ≤80%) | + (a delta R of between 0 and 30) | – | – | – | +++ (a delta p50% of 50 or greater)
9 | COc1cc(C=O)c(OCc2cccnc2-c2ccnn2C(C)C)cn1 [Compound 150] | +++ (a delta p50% of 50 or greater) | ††† (activity >120% but ≤140%) | – | – | +++ (a delta R of 50 or greater) | – | +++ (a delta p50% of 50 or greater)

Continued, in another order:

Row | delta p50% [1] | % delta Delay (purified HBS) | delta R (HbS/A; compound at 9 μM) | delta R (HbS/A; compound at 3 μM) | delta R (HbS/A; compound at 30 μM) | melting point [°C] | SMILES | delta p50% Values for Whole Blood Assay (whole blood)
10 | +++ (a delta p50% of 50 or greater) | ††† (activity >120% but ≤140%) | + (a delta R of between 0 and 30) | – | – | – | COc1cc(C=O)c(OCc2nccnc2-c2ccnn2C(C)C)cn1 [Compound 181, 5-((3-(1-isopropyl-1H-pyrazol-5-yl)pyrazin-2-yl)methoxy)-2-methoxyisonicotinaldehyde] | +++ (a delta p50% of 50 or greater)
11 | +++ (a delta p50% of 50 or greater) | † (activity ≥40% but ≤80%) | – | + (a delta R of between 0 and 30) | – | – | Cc1ccc(OCc2cccnc2-c2ccnn2C(C)C)c(C=O)n1 [Compound 177, 3-((2-(1-isopropyl-1H-pyrazol-5-yl)pyridin-3-yl)methoxy)-6-methylpicolinaldehyde] | +++ (a delta p50% of 50 or greater)
12 | – | ††† (activity >120% but ≤140%) | + (a delta R of between 0 and 30) | – | – | 102 to 104 | CS(=O)(=O)NC(=O)c1ccc(COc2cnccc2C=O)nc1 [Compound 206, 2,2,2-trifluoroacetic acid:6-(((4-formylpyridin-3-yl)oxy)methyl)-N-(methylsulfonyl)nicotinamide (2:1)] | +++ (a delta p50% of 50 or greater)
13 | +++ (a delta p50% of 50 or greater) | † (activity ≥40% but ≤80%) | – | – | ++ (a delta R of between 30 and 50) | – | COCCOc1cc(C=O)c(OCc2cccnc2-c2ccnn2C(C)C)cn1 [Compound 180, 5-((2-(1-isopropyl-1H-pyrazol-5-yl)pyridin-3-yl)methoxy)-2-(2-methoxyethoxy)isonicotinaldehyde] | +++ (a delta p50% of 50 or greater)
14 | +++ (a delta p50% of 50 or greater) | †††† (activity >160%) | – | – | +++ (a delta R of 50 or greater) | – | CC(C)n1nccc1-c1ncccc1COc1cncc(O)c1C=O [Compound 186, 3-hydroxy-5-((2-(1-isopropyl-1H-pyrazol-5-yl)pyridin-3-yl)methoxy)isonicotinaldehyde] | +++ (a delta p50% of 50 or greater)
15 | ++ (a delta p50% of between 30 and 50) | †† (activity >80% but ≤120%) | +++ (a delta R of 50 or greater) | – | – | – | O=Cc1c(O)cncc1OCc1ccccc1 [Compound 187, 3-(benzyloxy)-5-hydroxyisonicotinaldehyde] | + (a delta p50% of between 0 and 29)
16 | +++ (a delta p50% of 50 or greater) | †† (activity >80% but ≤120%) | – | – | ++ (a delta R of between 30 and 50) | – | COc1cc(C=O)c(OCc2cccnc2-c2ccnn2CC(F)(F)F)cn1 [Compound 174, 2-methoxy-5-((2-(1-(2,2,2-trifluoroethyl)-1-pyrazol-5-yl)pyridin-3-yl)methoxy)isonicotinaldehyde] | +++ (a delta p50% of 50 or greater)
17 | ++ (a delta p50% of between 30 and 50) | † (activity ≥40% but ≤80%) | + (a delta R of between 0 and 30) | – | – | – | CC(C)n1nccc1-c1ncccc1COc1cnc(OC(F)F)cc1C=O [Compound 178, 2-(difluoromethoxy)-5-((2-(1-isopropyl-1H-pyrazol-5-yl)pyridin-3-yl)methoxy)isonicotinaldehyde] | ++ (a delta p50% of between 30 and 50)
18 | +++ (a delta p50% of 50 or greater) | † (activity ≥40% but ≤80%) | – | – | ++ (a delta R of between 30 and 50) | – | COc1cc(C=O)c(OCc2cccnc2-c2ccnn2C2CCCC2)cn1 [Compound 198, 5-((2-(1-cyclopentyl-1H-pyrazol-5-yl)pyridin-3-yl)methoxy)-2-methoxyisonicotinaldehyde] | +++ (a delta p50% of 50 or greater)
19 | +++ (a delta p50% of 50 or greater) | ††† (activity >120% but ≤140%) | + (a delta R of between 0 and 30) | – | – | – | COc1cc(C=O)c(OCc2cccnc2-c2ccnn2CC(=O)O)cn1 [Compound 199, 2-(5-(3-((4-formyl-6-methoxypyridin-3-yloxy)methyl)pyridin-2-yl)-1H-pyrazol-1-yl)acetic acid] | + (a delta p50% of between 0 and 29)
